The source of these data is US7109229B2, “Methods and compounds for treating proliferative diseases” (Eli Lilly and Company, priority 2000, dated 2006).

Series [1] addresses T1, Cyclin D1-cdk4 (Homo sapiens, UniProt P11802). Kind of series: Cyclin D1-cdk4 kinase activity with the Rb21 protein as substrate. As to conditions: Table 1; Rb21 protein substrate; read-out: Rb21 IC50. The series is classed as biochemical. On the procedure:
The compounds of Formula I were tested using in vitro. An important in vitro test is the ability of the compound to inhibit the activity of the CDK4 enzyme. This test is done using Rb^ING and/or Rb^21 substrates as described in the literature ([…]., et al, J. Biol. Chem. 273, 26506-26515 (1998)). […] The reaction was incubated at room temperature (about 74° F.) for 60 minutes, and then terminated by the addition of 100 ul of 25% trichloroacetic acid. Next, the reaction was filtered through a Millipore Multiscreen-FC Plate-Catalog number MAFC NOB 10, and the plate was washed 2 times with 320 ul each of 10% trichloroacetic acid, followed by the addition of 100 ul of scintillation fluid and quantitation on a Packard Instruments, Top Count, scintillation counter.

Series [2] deals with T1, Cyclin D1-cdk4. In words: Cyclin D1-cdk4 kinase activity with the ING peptide as substrate. Format: biochemical. As to conditions: Table 1; ING peptide substrate; read-out: RbING IC50. On the procedure:
The compounds of Formula I were tested using in vitro. An important in vitro test is the ability of the compound to inhibit the activity of the CDK4 enzyme. This test is done using Rb^ING and/or Rb^21 substrates as described in the literature (KONSTANTINIDIS, A. K., et al, J. Biol. Chem. 273, 26506–26515 (1998)). The test yields the micromolar concentration of the test compound, which produces a 50% inhibition of the CDK4 enzyme activity.
Assay of Cyclin D1-cdk4 Kinase Activity with the ING Peptide as Substrate.
The cyclin D1-cdk4 kinase activity of a compound was assayed by preparing a 100 ul reaction at the following concentrations: 35 mM Hepes pH 7.0, 10 mM MgCl2, 300 uM ATP, 200 uM ING peptide, 1.0 uCi of γ-^33P-ATP, 4.34 ug of cyclin D-cdk4 enzyme, 4% DMSO, and various concentrations of inhibitor. The reaction was incubated at room temperature (about 74° F.) for 60 minutes, and then terminated by the addition of 100 ul of 10% phosphoric acid. Next, the reaction was filtered through a Millipore Multiscreen-PH Plate—Catalog number MAPH NOB 10, and the plate was washed 2 times with 320 ul each of 0.5% phosphoric acid, followed by the addition of 100 ul of scintillation fluid and quantitation on a Packard Instruments, Top Count, scintillation counter.

The next series relates to protein kinase A. As to conditions: background, literature; cited from earlier work.
For another series, the system named is protein kinase C. As to conditions: background, literature; cited from earlier work.

Where a name gives a salt, the structure may show the parent alone.

T1 sequence (P11802 whole entry): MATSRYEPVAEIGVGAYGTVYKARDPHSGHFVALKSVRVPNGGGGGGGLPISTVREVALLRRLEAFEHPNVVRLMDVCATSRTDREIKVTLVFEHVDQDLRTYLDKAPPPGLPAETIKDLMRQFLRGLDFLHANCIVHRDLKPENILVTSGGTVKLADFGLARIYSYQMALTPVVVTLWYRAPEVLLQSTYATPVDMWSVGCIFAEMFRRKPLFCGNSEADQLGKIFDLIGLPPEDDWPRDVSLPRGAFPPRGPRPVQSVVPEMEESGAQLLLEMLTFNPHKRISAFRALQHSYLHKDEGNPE
T1 sequence (P24385 whole entry partner): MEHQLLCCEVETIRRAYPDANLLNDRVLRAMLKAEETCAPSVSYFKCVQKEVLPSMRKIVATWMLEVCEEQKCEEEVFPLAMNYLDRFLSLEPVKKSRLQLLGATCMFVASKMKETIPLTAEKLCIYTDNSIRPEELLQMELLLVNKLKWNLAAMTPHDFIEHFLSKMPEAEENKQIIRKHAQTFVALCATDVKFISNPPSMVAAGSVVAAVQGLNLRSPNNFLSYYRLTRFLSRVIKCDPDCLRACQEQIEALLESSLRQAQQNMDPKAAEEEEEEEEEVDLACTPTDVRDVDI

Take `Cn1ccc2ccc3c4[nH]c5ccccc5c4c4c(c3c21)C(=O)NC4=O` [Example 2, 5-Methyl-7H,13H-indolo[6,7-a]-pyrrolo[3,4-c]-carbazole-6,8-dione]: on Cyclin D1-cdk4 [1], the 50% inhibitory concentration (IC50) (in general, the concentration that gives 50% inhibition) was 21.5 nM.

`COc1ccc2c3c4c(c5c(ccc6ccn(C)c65)c3n(CCCO)c2c1)C(=O)NC4=O` [Example 11, 13-(3-Hydroxy-propyl)-11-methoxy-5-methyl-5H,13H-indolo[6,7-a]pyrrolo[3,4-c]carbazole-6,8-dione]: the IC50 on Cyclin D1-cdk4 [1] stood at 11.6 nM.

Regarding `COc1ccc2c3c4c(c5c(ccc6ccn(C)c65)c3n(CCN3CCC(C(N)=O)CC3)c2c1)C(=O)NC4=O` [Example 36, 11-Methoxy-5-methyl-13-(1-ethyl-piperidine-4-carboxylic acid amide)-7H-indolo[6,7-a]pyrrolo[3,4-c]carbazole-6,8-dione], the values for the 50% inhibitory concentration (IC50) on Cyclin D1-cdk4 [2] and on Cyclin D1-cdk4 [1] were 82.4 nM and 35.7 nM, respectively.

Turning to `COc1ccc2c3c4c(c5c(ccc6ccn(C)c65)c3n(CCCNCCN(C)C)c2c1)C(=O)NC4=O` [Example 55, 11-Methoxy-5-methyl-13-(N,N-dimethyl-N′-propyl-ethane-1,2-diamine)-7H-indolo[6,7-a]pyrrolo[3,4-c]carbazole-6,8-dione], the IC50 was found to be 42 nM on Cyclin D1-cdk4 [2] and 24.6 nM at Cyclin D1-cdk4 [1].

Turning to `COc1ccc2c3c4c(c5c(ccc6ccn(C)c65)c3n(CCCNCCN(C)C)c2c1)C(=O)NC4=O` [Example 56, 11-Methoxy-5-methyl-13-(N,N-dimethyl-N′-propyl-ethane-1,2-diamine)-7H-indolo[6,7-a]pyrrolo[3,4-c]carbazole-6,8-dione dihydrochloride], the half-maximal inhibitory concentration (IC50) on Cyclin D1-cdk4 [2] came out at 99.2 nM; on Cyclin D1-cdk4 [1], 17.7 nM.

Regarding `COC(=O)[C@H](C)NCCCn1c2cc(OC)ccc2c2c3c(c4c(ccc5ccn(C)c54)c21)C(=O)NC3=O` [Example 59, (S)-(+)-11-Methoxy-5-methyl-13-(2-propylamino-propionic acid methyl ester)-7H-indolo[6,7-a]pyrrolo[3,4-c]carbazole-6,8-dione], the IC50 was determined as 120 nM at Cyclin D1-cdk4 [2] and 45.1 nM on Cyclin D1-cdk4 [1].

With `CN1CCN(CCc2cccc3c2[nH]c2c4ccc5ccn(C)c5c4c4c(c32)C(=O)NC4=O)CC1` [Example 68, 5-Methyl-12-(1-ethyl-4-methyl-piperazine)-7H,13H-indolo[6,7-a]pyrrolo[3,4-c]carbazole-6,8-dione], the 50% inhibitory concentration (IC50) on Cyclin D1-cdk4 [2] amounted to 22.6 nM; on Cyclin D1-cdk4 [1], 10.9 nM.

`CN1CCN(CCCc2cccc3c2[nH]c2c4ccc5ccn(C)c5c4c4c(c32)C(=O)NC4=O)CC1` [Example 79, 12-(1-Methyl-4-propyl-piperazine)-5-methyl-7H,13H-indolo[6,7-a]pyrrolo[3,4-c]carbazole-6,8-dione]: the figures for the IC50 on Cyclin D1-cdk4 [2] and on Cyclin D1-cdk4 [1] were 76.3 nM and 34.7 nM, respectively.

As to `Cn1ccc2ccc3c4[nH]c5c(CCN6CCCCC6)cccc5c4c4c(c3c21)C(=O)NC4=O` [Example 83, 5-Methyl-12-(2-ethylpiperidine)-7H,13H-indolo[6,7-a]pyrrolo[3,4-c]carbazole-6,8-dione], the half-maximal inhibitory concentration (IC50) on Cyclin D1-cdk4 [2] was found to be 78.2 nM; at Cyclin D1-cdk4 [1], 10.9 nM.

Consider `Cc1ccc2c(c1)[nH]c1c3ccc4ccn(C)c4c3c3c(c21)C(=O)NC3=O` [Example 92, 11-Methyl-5-methyl-7H,13H-indolo[6,7-a]pyrrolo[3,4-c]6,8-dione], for which the melting point (commonly the temperature, or range, at which the solid turns liquid) was 170 °C (dec.).

With `Cn1ccc2ccc3c4[nH]c5ccc(C(F)(F)F)cc5c4c4c(c3c21)C(=O)NC4=O` [Example 94, 10-Trifluoromethyl-5-methyl-7H,13H-indolo[6,7-a]pyrrolo[3,4-c]6,8-dione], the melting point was 100 to 110 °C (dec.).

As to `CN1CC[C@H](c2c(O)cc(O)c3c(=O)cc(-c4ccccc4Cl)oc23)[C@H](O)C1` [Flavopiridol], the “concentration at which protein kinase A is inhibited” value in the series on protein kinase A is given as not below 10 μM/L. Further, the “concentration at which protein kinase C is inhibited” value with protein kinase C is on record as not below 10 μM/L.
